Assay results reported in patent publication US20140309265A1, “MACROCYCLIC COMPOUNDS FOR INHIBITION OF INHIBITORS OF APOPTOSIS” (Ensemble Therapeutics, priority 2011, published 2014).

Key:
His-BIR3 (241-356, XIAP) = target: T1, His-BIR3 (241-356, XIAP) (Homo sapiens, UniProt P98170); test: XIAP-BIR3/SMAC Homogeneous Time Resolved Fluorescence (HTRF) Assay; format: binding; details: Table 4
T1 construct: additions of His-BIR3 (241-356, XIAP), fluorescein labeled SMAC peptide

[1] = target: T2, His-BIR2-3 (125-356, C202A/C213G, XIAP) (Homo sapiens, UniProt P98170, C202A/C213G); test: XIAP-BIR2-3 Dimeric SMAC Peptide Homogeneous Time Resolved Fluorescence (HTRF) Assay; format: binding; details: XIAP BIR2-3, HTRF, Table 4
T2 construct: additions of His-BIR2-3 (125-356, C202A/C213G, XIAP), fluorescein labeled dimeric SMAC peptide
T2 sequence (P98170 125-356 C202A/C213G): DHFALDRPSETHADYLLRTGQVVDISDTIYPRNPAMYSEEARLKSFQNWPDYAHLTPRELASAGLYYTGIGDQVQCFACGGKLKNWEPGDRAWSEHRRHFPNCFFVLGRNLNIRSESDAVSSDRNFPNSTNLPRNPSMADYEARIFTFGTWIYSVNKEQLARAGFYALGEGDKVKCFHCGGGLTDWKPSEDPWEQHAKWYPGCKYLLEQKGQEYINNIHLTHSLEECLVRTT

T1 sequence (P98170 241-356): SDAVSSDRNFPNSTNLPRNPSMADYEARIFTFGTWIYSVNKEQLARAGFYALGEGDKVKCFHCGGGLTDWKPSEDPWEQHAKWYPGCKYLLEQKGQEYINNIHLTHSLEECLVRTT

| SMILES | IC50 (His-BIR3 (241-356, XIAP)) | IC50 [1] |
| --- | --- | --- |
| CN[C@@H](C)C(=O)N[C@H](C(=O)N1C[C@@H]2C[C@H]1C(=O)N[C@@H](Cc1ccc3ccccc3c1)C(=O)N[C@H](C(=O)O)Cc1ccc(cc1)OCc1cn(nn1)[C@H]1C[C@@H](C(=O)N[C@@H](Cc3ccc4ccccc4c3)C(=O)N[C@H](C(=O)O)Cc3ccc(cc3)OCc3cn2nn3)N(C(=O)[C@@H](NC(=O)[C@H](C)NC)C23CC4CC(CC(C4)C2)C3)C1)C12CC3CC(CC(C3)C1)C2 [Compound 1008] | 10 to 100 nM | ≤ 1 nM |
| CN[C@@H](C)C(=O)N[C@H](C(=O)N1C[C@@H]2C[C@H]1C(=O)N[C@@H](Cc1ccc3ccccc3c1)C(=O)N[C@H](C(=O)O)Cc1ccc(cc1)OCc1cn(nn1)[C@H]1C[C@@H](C(=O)N[C@@H](Cc3ccc4ccccc4c3)C(=O)N[C@H](C(=O)O)Cc3ccc(cc3)OCc3cn2nn3)N(C(=O)[C@@H](NC(=O)[C@H](C)NC)C23CC4CC(CC(O)(C4)C2)C3)C1)C12CC3CC(CC(O)(C3)C1)C2 [Compound 1009] | < 10 nM | 1 to 10 nM |
| CN[C@@H](C)C(=O)N[C@H](C(=O)N1C[C@@H]2C[C@H]1C(=O)N[C@@H](Cc1ccc3ccccc3c1)C(=O)N[C@H](C(=O)O)Cc1ccc(cc1)OCCCc1cn(nn1)[C@H]1C[C@@H](C(=O)N[C@@H](Cc3ccc4ccccc4c3)C(=O)N[C@H](C(=O)O)Cc3ccc(cc3)OCCCc3cn2nn3)N(C(=O)[C@@H](NC(=O)[C@H](C)NC)C(C)(C)C)C1)C(C)(C)C [Compound 1011] | < 10 nM | 1 to 10 nM |
| CN[C@@H](C)C(=O)N[C@H](C(=O)N1C[C@@H]2C[C@H]1C(=O)N[C@@H](Cc1ccc3ccccc3c1)C(=O)N[C@H](C(=O)O)Cc1ccc(cc1)NC(=O)CCc1cn(nn1)[C@H]1C[C@@H](C(=O)N[C@@H](Cc3ccc4ccccc4c3)C(=O)N[C@H](C(=O)O)Cc3ccc(cc3)NC(=O)CCc3cn2nn3)N(C(=O)[C@@H](NC(=O)[C@H](C)NC)C(C)(C)C)C1)C(C)(C)C [Compound 1012] | < 10 nM | 1 to 10 nM |
| CNC(C)C(=O)NC(C(=O)N1CC2CC1C(=O)NC(Cc1ccc3ccccc3c1)C(=O)NC(C(=O)O)Cc1ccc(cc1)OCc1cn(nn1)C1CC(C(=O)NC(Cc3ccc4ccccc4c3)C(=O)NC(C(=O)O)c3ccc(cc3)OCc3cn2nn3)N(C(=O)C(NC(=O)C(C)NC)C(C)(C)C)C1)C(C)(C)C (stereo not drawn) [Compound 1013] | < 10 nM | ≤ 1 nM |
| CN[C@@H](C)C(=O)N[C@H](C(=O)N1C[C@@H]2C[C@H]1C(=O)N[C@@H](Cc1ccc3ccccc3c1)C(=O)N[C@H](C(=O)O)Cc1ccc(cc1)NC(=O)c1cn(nn1)[C@H]1C[C@@H](C(=O)N[C@@H](Cc3ccc4ccccc4c3)C(=O)N[C@H](C(=O)O)Cc3ccc(cc3)OCc3cn2nn3)N(C(=O)[C@@H](NC(=O)[C@H](C)NC)C(C)(C)C)C1)C(C)(C)C [Compound 1014] | < 10 nM | ≤ 1 nM |
| CN[C@@H](C)C(=O)N[C@H](C(=O)N1C[C@@H]2C[C@H]1C(=O)N[C@@H](Cc1ccc3ccccc3c1)C(=O)N[C@H](C(=O)O)Cc1ccc(cc1)-c1cn(nn1)[C@H]1C[C@@H](C(=O)N[C@@H](Cc3ccc4ccccc4c3)C(=O)N[C@H](C(=O)O)Cc3ccc(cc3)OCc3cn2nn3)N(C(=O)[C@@H](NC(=O)[C@H](C)NC)C(C)(C)C)C1)C(C)(C)C [Compound 1015] | 10 to 100 nM | 1 to 10 nM |
| CN[C@@H](C)C(=O)N[C@H](C(=O)N1C[C@@H]2C[C@H]1C(=O)N[C@@H](Cc1ccc3ccccc3c1)C(=O)N[C@H](C(=O)O)Cc1ccc(cc1)OCc1cn(nn1)[C@H]1C[C@@H](C(=O)N[C@@H](Cc3ccc4ccccc4c3)C(=O)N[C@H](C(=O)O)Cc3ccc(cc3)NC(=O)CCc3cn2nn3)N(C(=O)[C@@H](NC(=O)[C@H](C)NC)C(C)(C)C)C1)C(C)(C)C [Compound 1016] | < 10 nM | ≤ 1 nM |
| CN[C@@H](C)C(=O)N[C@H](C(=O)N1C[C@@H]2C[C@H]1C(=O)N[C@@H](Cc1ccc3ccccc3c1)C(=O)N[C@H](C(=O)O)Cc1ccc(cc1)OCc1cn(nn1)[C@H]1C[C@@H](C(=O)N[C@@H](Cc3ccc4ccccc4c3)C(=O)N[C@H](C(=O)NCc3nnn[nH]3)Cc3ccc(cc3)OCc3cn2nn3)N(C(=O)[C@@H](NC(=O)[C@H](C)NC)C(C)(C)C)C1)C(C)(C)C [Compound 1022] | < 10 nM | 1 to 10 nM |
| CN[C@@H](C)C(=O)N[C@H](C(=O)N1C[C@@H]2C[C@H]1C(=O)N[C@@H](Cc1ccc3ccccc3c1)C(=O)N[C@H](C(=O)O)Cc1ccc(cc1)OCc1cn(nn1)[C@H]1C[C@@H](C(=O)N[C@@H](Cc3ccc4ccccc4c3)C(=O)N[C@H](C(=O)NCc3ccc(-c4nnn[nH]4)cc3)Cc3ccc(cc3)OCc3cn2nn3)N(C(=O)[C@@H](NC(=O)[C@H](C)NC)C(C)(C)C)C1)C(C)(C)C [Compound 1023] | < 10 nM | 1 to 10 nM |
| CN[C@@H](C)C(=O)N[C@H](C(=O)N1C[C@@H]2C[C@H]1C(=O)N[C@@H](Cc1ccc3ccccc3c1)C(=O)N[C@H](C(=O)O)Cc1ccc(cc1)OCc1cn(nn1)[C@H]1C[C@@H](C(=O)N[C@@H](Cc3ccc4ccccc4c3)C(=O)N[C@H](C(=O)N(C)C)Cc3ccc(cc3)OCc3cn2nn3)N(C(=O)[C@@H](NC(=O)[C@H](C)NC)C(C)(C)C)C1)C(C)(C)C [Compound 1024] | < 10 nM | 1 to 10 nM |
| CN[C@@H](C)C(=O)N[C@H](C(=O)N1C[C@@H]2C[C@H]1C(=O)N[C@@H](Cc1ccc3ccccc3c1)C(=O)N[C@H](C(=O)O)Cc1ccc(cc1)OCc1cn(nn1)[C@H]1C[C@@H](C(=O)N[C@@H](Cc3ccc4ccccc4c3)C(=O)N[C@H](C(=O)NCc3cccc(-c4nnn[nH]4)c3)Cc3ccc(cc3)OCc3cn2nn3)N(C(=O)[C@@H](NC(=O)[C@H](C)NC)C(C)(C)C)C1)C(C)(C)C [Compound 1025] | < 10 nM | 1 to 10 nM |
| CN[C@@H](C)C(=O)N[C@H](C(=O)N1CCN2CCn3cc(nn3)C[C@@H](C(=O)O)NC(=O)[C@H](Cc3ccc4ccccc4c3)NC(=O)[C@@H]3CN(CCN3C(=O)[C@@H](NC(=O)[C@H](C)NC)C(C)(C)C)CCn3cc(nn3)C[C@@H](C(=O)O)NC(=O)[C@H](Cc3ccc4ccccc4c3)NC(=O)[C@@H]1C2)C(C)(C)C [Compound 1050] | – | > 10 nM |

Results, then the compound that gave them:

| IC50 (His-BIR3 (241-356, XIAP)) | IC50 [1] | SMILES |
| --- | --- | --- |
| > 100 nM | > 10 nM | CN[C@@H](C)C(=O)N[C@H](C(=O)N1C[C@@H]2C[C@H]1C(=O)N[C@@H](Cc1ccc3ccccc3c1)C(=O)N[C@H](C(=O)O)Cc1ccc(cc1)OCc1cn(nn1)[C@H]1C[C@@H](C(=O)N[C@@H](Cc3ccc4ccccc4c3)C(=O)N[C@H](C(=O)OC)Cc3ccc(cc3)OCc3cn2nn3)N(C(=O)[C@@H](NC(=O)[C@H](C)NC)C(C)(C)C)C1)C(C)(C)C [Compound 1001] |
| < 10 nM | ≤ 1 nM | CN[C@@H](C)C(=O)N[C@H](C(=O)N1C[C@@H]2C[C@H]1C(=O)N[C@@H](Cc1ccc3ccccc3c1)C(=O)N[C@H](C(=O)O)Cc1ccc(cc1)OCc1cn(nn1)[C@H]1C[C@@H](C(=O)N[C@@H](Cc3ccc4ccccc4c3)C(=O)N[C@H](C(=O)O)Cc3ccc(cc3)OCCc3cn2nn3)N(C(=O)[C@@H](NC(=O)[C@H](C)NC)C(C)(C)C)C1)C(C)(C)C [Compound 1017] |
| < 10 nM | 1 to 10 nM | CN[C@@H](C)C(=O)N[C@H](C(=O)N1C[C@@H]2C[C@H]1C(=O)N[C@@H](Cc1ccc3ccccc3c1)C(=O)N[C@H](C(=O)O)Cc1ccc(cc1)OCc1cn(nn1)[C@H]1C[C@@H](C(=O)N[C@@H](Cc3ccc4ccccc4c3)C(=O)N[C@H](C(=O)NCC(=O)O)Cc3ccc(cc3)OCc3cn2nn3)N(C(=O)[C@@H](NC(=O)[C@H](C)NC)C(C)(C)C)C1)C(C)(C)C [Compound 1018] |
| < 10 nM | 1 to 10 nM | CN[C@@H](C)C(=O)N[C@H](C(=O)N1C[C@@H]2C[C@H]1C(=O)N[C@@H](Cc1ccc3ccccc3c1)C(=O)N[C@H](C(=O)O)Cc1ccc(cc1)OCc1cn(nn1)[C@H]1C[C@@H](C(=O)N[C@@H](Cc3ccc4ccccc4c3)C(=O)N[C@H](C(=O)NCCC(=O)O)Cc3ccc(cc3)OCc3cn2nn3)N(C(=O)[C@@H](NC(=O)[C@H](C)NC)C(C)(C)C)C1)C(C)(C)C [Compound 1019] |
| 10 to 100 nM | 1 to 10 nM | CN[C@@H](C)C(=O)N[C@H](C(=O)N1C[C@@H]2C[C@H]1C(=O)N[C@@H](Cc1ccc3ccccc3c1)C(=O)N[C@H](C(=O)O)Cc1ccc(cc1)OCc1cn(nn1)[C@H]1C[C@@H](C(=O)N[C@@H](Cc3ccc4ccccc4c3)C(=O)N[C@H](C(=O)N(C)CC(=O)O)Cc3ccc(cc3)OCc3cn2nn3)N(C(=O)[C@@H](NC(=O)[C@H](C)NC)C(C)(C)C)C1)C(C)(C)C [Compound 1020] |
| < 10 nM | 1 to 10 nM | CN[C@@H](C)C(=O)N[C@H](C(=O)N1C[C@@H]2C[C@H]1C(=O)N[C@@H](Cc1ccc3ccccc3c1)C(=O)N[C@H](C(=O)O)Cc1ccc(cc1)OCc1cn(nn1)[C@H]1C[C@@H](C(=O)N[C@@H](Cc3ccc4ccccc4c3)C(=O)N[C@H](C(=O)N3CCC(C(=O)O)C3)Cc3ccc(cc3)OCc3cn2nn3)N(C(=O)[C@@H](NC(=O)[C@H](C)NC)C(C)(C)C)C1)C(C)(C)C (stereo partly drawn) [Compound 1021] |
| 10 to 100 nM | 1 to 10 nM | CN[C@@H](C)C(=O)N[C@H](C(=O)N1C[C@@H]2C[C@H]1C(=O)N[C@@H](Cc1ccc3ccccc3c1)C(=O)N[C@H](C(=O)O)Cc1ccc(cc1)OCc1cn(nn1)[C@H]1C[C@@H](C(=O)N[C@@H](Cc3ccc4ccccc4c3)C(=O)N[C@H](C(=O)N3CC(C(=O)O)C3)Cc3ccc(cc3)OCc3cn2nn3)N(C(=O)[C@@H](NC(=O)[C@H](C)NC)C(C)(C)C)C1)C(C)(C)C [Compound 1026] |
